Laboratory results published in PubChem BioAssay (NCI).
Several values for one entry are separate records, joined by “and”; a condition that tells them apart may be missing. Identical values can stand only once.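 Values below derive from 48-hour exposures of cells grown in 96-well plates, with endpoints linearly interpolated between the two concentrations bracketing the appropriate inhibition level. TGI denotes the concentration required for complete inhibition of growth.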

Legend:
Test in all cases: NCI-60 cell line screen, 48 h
MCF7 breast = tested on: MCF7 breast
HOP-92 NSCLC = tested on: HOP-92 NSCLC
HOP-62 NSCLC = tested on: HOP-62 NSCLC
NCI-H522 lung = tested on: NCI-H522 lung
HCC-2998 colon = tested on: HCC-2998 colon
A549 NSCLC = tested on: A549 NSCLC
SNB-75 CNS = tested on: SNB-75 CNS
NCI-H460 lung = tested on: NCI-H460 lung
IGROV1 ovarian = tested on: IGROV1 ovarian
RXF 393 renal = tested on: RXF 393 renal
HCT-116 colon = tested on: HCT-116 colon

CC1=C(SCCO)C(=O)c2ccccc2C1=O
TGI (MCF7 breast): 12.6 µM
TGI (HOP-92 NSCLC): 3.72 µM
TGI (HOP-62 NSCLC): 29.4 µM
TGI (NCI-H522 lung): 14.6 µM
TGI (HCC-2998 colon): 30.4 µM
TGI (A549 NSCLC): 32.8 µM
TGI (SNB-75 CNS): 30.1 µM
TGI (NCI-H460 lung): 26.8 µM
TGI (IGROV1 ovarian): 27.3 µM
TGI (RXF 393 renal): 26.3 µM
TGI (HCT-116 colon): 17.4 µM

CCCCC(=O)c1c(O)ccc2c(C)cc(=O)oc12
TGI (MCF7 breast): > 100 µM
TGI (HOP-92 NSCLC): > 100 µM
TGI (HOP-62 NSCLC): > 100 µM
TGI (NCI-H522 lung): > 100 µM
TGI (HCC-2998 colon): > 100 µM
TGI (A549 NSCLC): > 100 µM
TGI (SNB-75 CNS): > 100 µM
TGI (NCI-H460 lung): > 100 µM
TGI (IGROV1 ovarian): > 100 µM
TGI (RXF 393 renal): > 100 µM
TGI (HCT-116 colon): > 100 µM

CC[C@@]1(O)C[C@H](OC2CC(N(C)C)C(OC3CC(O)C(OC4CCC(=O)C(C)O4)C(C)O3)C(C)O2)c2c(cc3c(c2O)C(=O)c2c(O)cccc2C3=O)C1C(=O)OC (stereo partly specified)
TGI (HOP-92 NSCLC): 0.0897 µM
TGI (HOP-62 NSCLC): 1.58 µM
TGI (HCC-2998 colon): 0.598 µM and 1.88 µM
TGI (NCI-H460 lung): 1.42 µM
TGI (RXF 393 renal): 0.157 µM

C1=CC=C2NCCc3cccc(c3)CCNC3=CC=CC=CC3=NCCCCCCN=C2C=C1
TGI (HOP-92 NSCLC): 54 µM
TGI (HOP-62 NSCLC): 34.4 µM
TGI (NCI-H522 lung): 47.2 µM
TGI (A549 NSCLC): > 100 µM
TGI (SNB-75 CNS): 49.9 µM
TGI (NCI-H460 lung): 25.3 µM
TGI (IGROV1 ovarian): > 100 µM
TGI (RXF 393 renal): 32.4 µM

[C-]#[N+]C(=C\c1ccc(O)cc1)/C(=C/c1ccc(O)cc1)[N+]#[C-]
TGI (MCF7 breast): > 36.7 µM
TGI (HOP-92 NSCLC): > 100 µM
TGI (HOP-62 NSCLC): > 100 µM
TGI (NCI-H522 lung): > 33.1 µM
TGI (HCC-2998 colon): > 50.6 µM
TGI (A549 NSCLC): > 69.9 µM
TGI (SNB-75 CNS): 6.83 µM
TGI (NCI-H460 lung): > 28.6 µM
TGI (IGROV1 ovarian): > 23.6 µM
TGI (RXF 393 renal): 4.46 µM
TGI (HCT-116 colon): 15.8 µM

N#Cc1ccc([N+](=O)[O-])cc1NC(N)=S
TGI (HOP-92 NSCLC): > 100 µM
TGI (HOP-62 NSCLC): > 100 µM
TGI (NCI-H522 lung): > 100 µM
TGI (HCC-2998 colon): > 100 µM
TGI (A549 NSCLC): > 100 µM
TGI (SNB-75 CNS): > 100 µM
TGI (IGROV1 ovarian): > 100 µM
TGI (HCT-116 colon): > 100 µM

O=S(=O)(O)c1cc(S(=O)(=O)O)c2c(N=Nc3ccc(S(=O)(=O)O)c4ccccc34)c(O)ccc2c1
TGI (HOP-92 NSCLC): > 100 µM
TGI (HOP-62 NSCLC): > 100 µM
TGI (NCI-H522 lung): > 100 µM
TGI (A549 NSCLC): > 100 µM
TGI (SNB-75 CNS): > 100 µM
TGI (IGROV1 ovarian): > 100 µM
TGI (RXF 393 renal): > 100 µM
TGI (HCT-116 colon): > 100 µM

CC(=O)OCCCCN1C(=O)CSc2ccccc21
TGI (MCF7 breast): > 100 µM
TGI (HOP-92 NSCLC): > 100 µM
TGI (HOP-62 NSCLC): > 100 µM
TGI (NCI-H522 lung): > 100 µM
TGI (A549 NSCLC): > 100 µM
TGI (SNB-75 CNS): > 100 µM
TGI (NCI-H460 lung): > 100 µM
TGI (IGROV1 ovarian): > 100 µM
TGI (RXF 393 renal): > 100 µM
TGI (HCT-116 colon): > 100 µM

CC(C)C1=CC2=CC[C@@H]3[C@](C)(CCC[C@@]3(C)C(=O)O)[C@H]2CC1
TGI (HOP-92 NSCLC): > 84.6 µM
TGI (HOP-62 NSCLC): > 100 µM
TGI (NCI-H522 lung): > 100 µM
TGI (HCC-2998 colon): > 100 µM
TGI (A549 NSCLC): > 100 µM
TGI (SNB-75 CNS): > 100 µM
TGI (NCI-H460 lung): > 100 µM
TGI (IGROV1 ovarian): > 100 µM
TGI (RXF 393 renal): 97.4 µM
TGI (HCT-116 colon): > 80.2 µM

CN(C)c1ccc(C2CC(=O)CC(c3ccc(N(C)C)cc3)C23C(=O)NC(=S)NC3=O)cc1 (stereo unspecified)
TGI (MCF7 breast): > 100 µM
TGI (HOP-92 NSCLC): > 100 µM
TGI (HOP-62 NSCLC): 45.6 µM
TGI (HCC-2998 colon): > 100 µM
TGI (A549 NSCLC): > 100 µM
TGI (SNB-75 CNS): 31.2 µM
TGI (NCI-H460 lung): > 100 µM
TGI (RXF 393 renal): > 100 µM
TGI (HCT-116 colon): > 100 µM

C=CCn1c(=O)c(Br)nn(CCOCP(=O)(OCC)OCC)c1=O
TGI (MCF7 breast): > 100 µM
TGI (HOP-92 NSCLC): > 100 µM
TGI (HOP-62 NSCLC): > 100 µM
TGI (NCI-H522 lung): > 100 µM
TGI (HCC-2998 colon): > 100 µM
TGI (A549 NSCLC): > 100 µM
TGI (SNB-75 CNS): > 100 µM
TGI (NCI-H460 lung): > 100 µM
TGI (IGROV1 ovarian): > 100 µM
TGI (RXF 393 renal): > 100 µM
